Among the data in the SangsterLogP compilation are logP and logD values, retold here.

The logP is a log measure of how a compound divides between an organic and an aqueous phase. By logD is commonly meant the decadic logarithm of the distribution of all forms, ionised or not, between an organic phase and buffer at a given pH. Read a low logD as a more hydrophilic compound.

Assay in one data set: not given
Conditions: not given
Compound `CCCCNc1cc(C(=O)O)cc(S(N)(=O)=O)c1Oc1ccccc1` showed a logP of 3.21.
Compound `C[C@]12C=CC(=O)C=C1CC[C@@H]1[C@@H]2C(=O)C[C@@]2(C)[C@H]1CC[C@]2(O)C(=O)CO` returned a logP of 1.6.
Regarding `COC(=O)C1=C(C)NC(C)=C(C(=O)OC(C)C)[C@H]1c1cccc2nonc12`, the logP was found to be 3.75.

A short description of the next data set: method code SF-AS, from DOI: 10.1016/j.bmc.2004.10.037, PMID: 15653345.
Conditions: not given
`C#CCNC(Cc1ccc(O)c2ncccc12)C(=O)OCC` (stereo unspecified) had a lipophilicity (logP) of 0.71.
Still for that read-out and setting: under `C#CCN1CCN(Cc2ccc(O)c3ncccc23)CC1` stands 1.79; under `CCOC(=O)N1CCN(Cc2ccc(O)c3ncccc23)CC1`, 1.57.

Assay in a further data set: not given
Conditions: not given
This is another data set of the same source.
Turning to `Cc1onc(-c2c(F)cccc2Cl)c1C(=O)N[C@@H]1C(=O)N2[C@@H]1SC(C)(C)[C@@H]2C(=O)O`, the logP was 2.58.
`CC1(C)S[C@@H]2[C@H](NC(=O)C(C(=O)Oc3ccccc3)c3ccccc3)C(=O)N2[C@H]1C(=O)O` (stereo partly specified) returned a logP of 3.14.
`CC1(C)S[C@@H]2[C@H](NC(=O)[C@@H](c3ccccc3)S(=O)(=O)O)C(=O)N2[C@H]1C(=O)O` gave a logP of 0.59.

The next data set can be described thus: method code SF-HPLC, from Thijssen, W. (1981). The relationship between Log P, Rm, log k' and the constants pi and f: a study on penicillins. Eur J Med Chem, 16(5)449-452.
Conditions: not given
`Cc1onc(-c2c(Cl)cccc2Cl)c1C(=O)NC1C(=O)N2C1S(=O)C(C)(C)C2C(=O)O` (stereo unspecified) yielded a logP of 2.57.
With `Cc1onc(-c2ccccc2Cl)c1C(=O)NC1C(=O)N2C1S(=O)C(C)(C)C2C(=O)O` (stereo unspecified), the logP came out at 2.
`Cc1onc(-c2c(Cl)ccc(O)c2F)c1C(=O)NC1SC2N(C1=O)C(C(=O)O)C2(C)C` (stereo unspecified) had a log partition coefficient (logP) of 2.23.

Assay in another data set: not given
Conditions: not given
This is another data set of the same source.
Turning to `CC1(C)C=Cc2c(ccc3c2O[C@H]2c4ccc(O)cc4OC[C@@H]32)O1` (relative stereo), the logP is 3.58.
`COc1ccc([C@@H]2COc3cc(O)ccc3C2)c(O)c1`: the logP stood at 2.44.
With `COc1ccc2c(c1)OC[C@]1(O)c3cc4c(cc3O[C@H]21)OCO4`, the logP was determined as 2.58.

Assay in the next data set: not given
Conditions: not given
The source holds these as a separate data set.
Compound `CCOCn1c(Cc2cc(C)cc(C)c2)c(C(C)C)c(=O)[nH]c1=O` came in with a logP of 3.46.
Same read-out and setting: the result for `CCOCn1c(Cc2ccccc2)c(CC)c(=O)[nH]c1=O` reads 0.74; that for `CCc1c(Sc2ccccc2)n(COCc2ccccc2)c(S)nc1=O`, 3.44.

The nature of a further data set: method code SF-AS, from DOI: 10.3109/03639048709068705.
Conditions: not given
`CCCCCC(=O)OC(CNC(C)C)COc1cccc2ccccc12` (stereo unspecified) yielded a logP of 6.85.
For `CCC(=O)OC(CNC(C)C)COc1cccc2ccccc12` (stereo unspecified), the logP was found to be 4.99.
On the same count and under the same terms, the result for `CC(C)NCC(COc1cccc2ccccc12)OC(=O)C(C)(C)C` (stereo unspecified) reads 6.44.

A short description of the next data set: method code SF-AS, from PMID: 872227. The conditions noted are these: pH 7.2.
With `CCCCCOc1ccc(NC(=O)OCCN2CCOCC2)c(C)c1`, the logD is 3.38.
Compound `CCCCCCOc1ccc(NC(=O)OCCN2CCOCC2)c(C)c1` returned a log distribution coefficient (logD) of 3.9.
Same read-out and setting: under `CCCCOc1ccc(NC(=O)OCCN2CCOCC2)c(C)c1` stands 2.82.

Assay in a further data set: not given
Conditions: not given
This is another data set of the same source.
`Cc1cn(C2CC(N=[N+]=[N-])C(COC(=O)C(=O)N3CCCC3C(=O)O)O2)c(=O)[nH]c1=O` (stereo unspecified) returned a logP of 0.16.
On the same count and under the same terms, the result for `Cc1cn(C2CC(N=[N+]=[N-])C(COC(=O)C(=O)NC(CC(C)C)C(=O)O)O2)c(=O)[nH]c1=O` (stereo unspecified) reads 1.12; that for `Cc1cn(C2CC(N=[N+]=[N-])C(COC(=O)C(=O)NC(C(=O)O)C(C)C)O2)c(=O)[nH]c1=O` (stereo unspecified), 0.68.

Assay in a further data set: not given
Conditions: not given
This is another data set of the same source.
Regarding `CNc1ccc(-c2ccc3cc(OCC(O)CF)ccc3n2)cc1` (stereo unspecified), the logP amounted to 2.32.
The compound `Nc1ccc(-c2ccc3cc(OCCF)ccc3n2)cc1` registered a logP of 2.4.
Take `CN(CCF)c1ccc2cc(CC=C(C#N)C#N)ccc2c1`: the logP was found to be 3.71.

Assay in another data set: not given
Conditions: not given
The source holds these as a separate data set.
`CC(C)N(CCC(CCC1CCCCC1)(C(N)=O)c1ccccc1Cl)C(C)C` (stereo unspecified) had a logP of 4.23.
On the same count and under the same terms, the result for `CC(C)N(CCC(C(N)=O)c1ccccc1Cl)C(C)C` (stereo unspecified) reads 2.83.
Compound `CC(C)N(CCC(C(N)=O)c1ccc(-c2ccccc2)cc1)C(C)C` (stereo unspecified) gave a logP of 3.66.

Assay in another data set: not given
Conditions: not given
The source holds these as a separate data set.
In the case of `CC(C)NCC(COc1cccc2ccccc12)OC(=O)c1ccc([N+](=O)[O-])cc1` (stereo unspecified), the logP turned out to be 5.97.
`CC(=O)OC(CNC(C)C)COc1cccc2ccccc12` (stereo unspecified): the lipophilicity (logP) was 4.34.
On to `CC=CC(=O)OC(CNC(C)C)COc1cccc2ccccc12` (stereo unspecified), for which the logP was found to be 3.78.

Another data set in a line: method code SF-AS, from DOI: 10.1002/ardp.19853180604, PMID: 4026543. To be noted: pH 7.4.
Regarding `Cc1nc2ccccc2c(=O)n1N=C1SCC(=O)N1c1ccccc1`, the logD was -1.06.
Take `Cc1nc2ccccc2c(=O)n1N=C1SCC(=O)N1c1ccc(Br)cc1`: the logD is -1.26.
On the same count and under the same terms, under `Cc1nc2ccccc2c(=O)n1N=C1SCC(=O)N1c1ccc(Cl)cc1` stands -1.6.

The nature of the next data set: method code SF-RC, from DOI: 10.1016/0361-9230(85)90153-4, PMID: 2413968.
Conditions: not given
The compound `CSCC[C@H](NC(=O)[C@H](CC(C)C)NC(=O)CNC(=O)[C@H](Cc1ccccc1)NC(=O)[C@H](Cc1ccccc1)NC(=O)[C@H](CCC(N)=O)NC(=O)[C@H](CCC(N)=O)NC(=O)[C@@H]1CCCN1C(=O)[C@H](CCCCN)NC(=O)[C@@H]1CCCN1C(=O)[C@@H](N)CCCN=C(N)N)C(N)=O` had a logP of -0.56.
The same measure, in the same setting: the result for `NC(=O)[C@@H]1CCCN1C(=O)[C@H](Cc1cnc[nH]1)NC(=O)[C@@H]1CCC(=O)N1` reads -1.42; that for `CCNC(=O)[C@@H]1CCCN1C(=O)[C@H](CCCN=C(N)N)NC(=O)[C@H](CC(C)C)NC(=O)[C@@H](COC(C)(C)C)NC(=O)[C@H](Cc1ccc(O)cc1)NC(=O)[C@H](CO)NC(=O)[C@H](Cc1c[nH]c2ccccc12)NC(=O)[C@H](Cc1cnc[nH]1)NC(=O)[C@@H]1CCC(=O)N1`, -1.35.

The next data set in a line: method code SF, from PMID: 8999431. The conditions noted are these: pH 7.4.
In turn, `CCn1cc(C(=O)NC(CC(C)C)C(=O)OC)c(=O)c2ccc(C)nc21` (stereo unspecified) gave a logD of 3.15.
The same measure, in the same setting: under `CCn1cc(C(=O)NC(C)C(=O)OC)c(=O)c2ccc(C)nc21` (stereo unspecified) stands 2.47.
`CCOC(=O)CNC(=O)c1cn(CC)c2nc(C)ccc2c1=O` yielded a logD of 2.07.

Assay in a further data set: not given
Conditions: not given
The source holds these as a separate data set.
With `CCN(CC)CCC(=O)NC1c2ccccc2Sc2c(C)cccc21` (stereo unspecified), the logP is 4.1.
As for `CCN(CC)CCC(=O)NC1c2ccccc2Oc2c(C)cccc21` (stereo unspecified), the logP was 3.55.
`Cc1cccc2c1Sc1ccccc1C2NC(=O)CCN(C)C` (stereo unspecified) yielded a log partition coefficient (logP) of 3.06.

Assay in the next data set: not given
Conditions: not given
The source holds these as a separate data set.
`CCCC(=O)Oc1cc(C=C(C#N)C(=O)N(CC)CC)cc([N+](=O)[O-])c1OC(=O)CCC` came in with a logP of 3.15.
`CCN(CC)C(=O)C(C#N)=Cc1cc(OC(=O)c2ccccc2)c(OC(=O)c2ccccc2)c([N+](=O)[O-])c1` had a logP of 3.44.
Regarding `CCN(CC)C(=O)C(C#N)=Cc1cc(OC(C)=O)c(OC(C)=O)c([N+](=O)[O-])c1`, the logP was 1.23.

The nature of the next data set: from Jayashree, Bs.; Sahu, A.; MM, S.; Venugopala, K. (2006). Synthesis, characterization and determination of partition coefficient of some triazolo thiadiazinyl chlorocoumarin derivatives for their …. To be noted: pH 7.4.
In the case of `O=c1oc2ccc(Cl)cc2cc1C1=Nn2c(nnc2-c2ccccc2O)SC1`, the logD came out at 0.36.
In turn, `O=c1oc2ccc(Cl)cc2cc1C1=Nn2c(nnc2-c2cccc(Br)c2)SC1` returned a logD of 1.53.
The compound `O=c1oc2ccc(Cl)cc2cc1C1=Nn2c(COc3ccc(Cl)cc3Cl)nnc2SC1` registered a logD of 1.4.

Assay in a further data set: not given
Conditions: not given
The source holds these as a separate data set.
As to `CC(=O)N(CCO)c1c(I)c(C(=O)NC(CO)CO)c(I)c(C(=O)NC(CO)CO)c1I`, the logP was -2.49.
For `CC(=O)N(C[C@@H](O)CO)c1c(I)c(C(=O)NC(CO)CO)c(I)c(N(C(C)=O)[C@@H](O)CO)c1I`, the logP is -2.64.
`CC(=O)N(CC(O)CO)c1c(I)c(C(=O)NCC(O)CO)c(I)c(C(=O)NCC(O)CO)c1I` (stereo unspecified): the logP is -3.08.

A short description of another data set: method code SF-HPLC, from DOI: 10.1248/cpb.47.1081, PMID: 10478463. The conditions noted are these: pH 6.5.
Turning to `CON=C(C(=O)NC1C(=O)N2C(C(=O)OC(C)OC(=O)OC3CCCCC3)=CCSC12)c1csc(N)n1` (stereo unspecified), the logD amounted to 2.52.
The compound `CON=C(C(=O)NC1C(=O)N2C(C(=O)OC(C)OC(=O)OC(C)C)=CCSC12)c1csc(N)n1` (stereo unspecified) gave a log distribution coefficient (logD) of 1.37.
`CON=C(C(=O)NC1C(=O)N2C(C(=O)OC(C)OC(C)=O)=CCSC12)c1csc(N)n1` (stereo unspecified): the logD came to 0.46.

Assay in the next data set: not given
Conditions: not given
The source holds these as a separate data set.
On to `COc1cc(C=Cc2cccnc2)ccc1C=Cc1cccnc1`, for which the logP amounted to 4.32.
In turn, `C(=C\c1ccc(/C=C/c2ccncc2)cc1)/c1ccncc1` registered a logP of 3.93.
`C(=Cc1cccnc1)c1ccc(C=Cc2cccnc2)cc1` came in with a logP of 3.73.

Assay in a further data set: not given
Conditions: not given
This is another data set of the same source.
On to `Cc1ccccc1OCC(O)CNCC(O)COc1ccccc1C` (stereo unspecified), for which the logP stood at 3.67.
On the same count and under the same terms, the result for `COc1ccc(CCNCC(O)COc2cccc(C)c2)cc1OC` (stereo unspecified) reads 3; that for `O=[N+]([O-])c1ccc(OCC(O)CNCC(O)COc2ccccc2)cc1` (stereo unspecified), 2.62.
